Patent US5658885A, “Amidino and guanidino substituted boronic acid inhibitors of trypsin-like enzymes” (The DuPont Merck Pharmaceutical Company, priority 1994, dated 1997)

Tests used:
chymotrypsin = chymotrypsin (Bos taurus, UniProt P00766); conditions: Matteson et al. J. Am. Chem. Soc. 103: 5241 (1981); cited from earlier work
human thrombin = target: T1, human thrombin (Homo sapiens, UniProt P00734); experiment: Inhibition of thrombin hydrolysis of chromogenic substrate S2238 (Ki); assay type: biochemical; conditions: S2238, pH 7.5
T1 construct: 0.2-0.5 nM human thrombin or human factor Xa; purchased Enzyme Research Laboratories, South Bend, Ind
How it was run: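 Purified human enzymes hydrolysing pNA substrates (thrombin S2238, factor Xa S2222, factor VIIa S2288), followed by absorbance at 405 nm over 30 min with velocities taken at 25-30 min. Thrombin and Xa were run in 0.10 M phosphate pH 7.5, 0.20 M NaCl, 0.5% PEG 8000. VIIa was run in 0.05 M Tris pH 7.6, 0.10 M NaCl, 4 mM CaCl2, 0.1% BSA, with Ki calculated from inhibited versus control velocities using substrate concentration and Km.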

thrombin clotting times = experiment: Anticoagulant effect in vivo: identical model, activity measured by increases in thrombin clotting times; parameters: species or system conscious dogs or anesthetized rats; conditions: oral administration
human factor Xa = target: T2, human factor Xa (Homo sapiens, UniProt P00742); experiment: Inhibition of Factor Xa hydrolysis of chromogenic substrate S2222 (Ki); assay type: biochemical; conditions: S2222, pH 7.5
T2 construct: 0.2-0.5 nM human thrombin or human factor Xa; purchased Enzyme Research Laboratories, South Bend, Ind
Experimental: The effectiveness of compounds of the present invention as inhibitors of blood coagulation proteases was determined using purified human proteases and synthetic substrates following procedures similar to those described in Kettner et al. (1990).
For these assays, the rate of enzymatic (thrombin, Factor Xa, and Factor VIIa) hydrolysis of chromogenic substrates (S2238 (H-D-Phe-Pip-Arg-pNA), S2222, and S2288, respectively; Kabi Pharmacia, Franklin, Ohio) was measured both in the absence and presence of compounds of the present invention. […] A decrease in the rate of absorbance change at 405 nm in the presence of inhibitor is indicative of enzyme inhibition. The results of this assay are expressed as inhibitory constant, Ki.
Thrombin and Xa determinations were made in 0.10M sodium phosphate buffer, pH 7.5, containing 0.20M NaCl, and 0.5% PEG 8000. VIIa determinations were made in 0.05M tris buffer, pH 7.6, containing 0.10M NaCl, 4 mM CaCl2, and 0.1% bovine serum albumin.
Reactions were allowed to go for 30 minutes and the velocities (rate of absorbance change vs time) were measured in the time frame of 25-30 minutes. The following relationship was used to calculate Ki values. [formula] where: vo is the velocity of the control in the absence of inhibitor;
vs is the velocity in the presence of inhibitor;
I is the concentration of inhibitor;
Ki is the dissociation constant of the enzyme: inhibitor complex;
S is the concentration of substrate;
Km is the Michaelis constant.

T2 sequence (P00742 235-488 limits assumed): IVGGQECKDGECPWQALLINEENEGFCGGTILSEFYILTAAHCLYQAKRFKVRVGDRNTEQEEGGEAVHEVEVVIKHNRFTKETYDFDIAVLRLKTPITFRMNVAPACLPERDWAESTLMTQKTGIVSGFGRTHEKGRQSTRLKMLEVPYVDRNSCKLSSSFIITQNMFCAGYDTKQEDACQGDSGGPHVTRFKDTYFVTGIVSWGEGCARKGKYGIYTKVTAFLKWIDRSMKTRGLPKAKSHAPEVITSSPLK
T2 sequence (P00742 41-179 limits assumed): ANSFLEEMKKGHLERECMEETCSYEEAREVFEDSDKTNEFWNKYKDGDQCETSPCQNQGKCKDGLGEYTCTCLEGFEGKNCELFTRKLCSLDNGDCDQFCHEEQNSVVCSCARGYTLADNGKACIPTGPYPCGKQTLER

| Compound | Ki (chymotrypsin) [nM] | Ki (human thrombin) [nM] | elevation in anticoagulant activity measured by increases in thrombin clotting times (thrombin clotting times) [fold] | Ki (human factor Xa) [nM] |
| --- | --- | --- | --- | --- |
| CC(=O)N[C@@H](Cc1ccccc1)B(O)O [Ac-boroPhe--OH, R-1-acetamido-2-phenylethane boronic acid] | 4000 |  |  |  |
| Ac--(D)Phe--Pro--boroArg(CH3)--OH.HCl [Example 54] |  | < 500 | ≥ 2 |  |
| Ms--(D)Thiazolylalanine-Pro--boroPhe(m-CN)--C10 H16 [Example 31] |  | < 500 | ≥ 2 | < 500 |
